The values that follow come from ChEMBL document CHEMBL1127189, “A facile synthesis of the novel Neurokinin A antagonist SR 48968” (Bioorg Med Chem Lett, 1993).

Assay [1] has as its system Cavia porcellus. As to the kind of experiment: Intraperitoneal dose required for inhibition of [Nle10]-NKA4-10 induced bronchoconstriction in guinea pig. As to conditions: ip. The assay is classed as functional.
Assay [2] concerns Cavia porcellus. As to the kind of experiment: Intravenous dose required for inhibition of [Nle10]-NKA4-10 induced bronchoconstriction in guinea pig. The format is functional.

Usually ED50 stands for the dose at which the effect has come halfway, by size or by number of responders.

In the case of `CC(=O)NC1(c2ccccc2)CCN(CC[C@H](CN(C)C(=O)c2ccccc2)c2ccc(Cl)c(Cl)c2)CC1` [SAREDUTANT], the ED50 was found to be 0.35 mg/kg with Cavia porcellus [1] and 0.037 mg/kg in the assay on Cavia porcellus [2].
